Where a name gives a salt, the structure may show the parent alone. Read-outs that look alike come from different tables or passages of the source.
Tests used:
L1210 leukemia cells = conditions: 100 mg/kg ip
[1] = system: human neuroblastoma cells; conditions: 10 μM; cited from earlier work
rat hepatocytes [2] = experiment: EMS-induced cytotoxicity (LDH leakage/cell death) in rat hepatocyte suspensions; conditions: for Protection From Toxic Injury: EMS 3 h; for inhibition at 25 µM: Rattus norvegicus, Hepatocyte
canine hepatocytes = experiment: EMS-induced cytotoxicity in canine hepatocytes; format: cell-based; conditions: 25 μM, 50 mM EMS
male Sprague-Dawley rats = experiment: Energy status of rat tissue; format: in vivo; conditions: 100 mg/kg ip, 24 h
Experimental: An in vivo experiment was performed to determine the effect of alpha-TS on the energy status of rat tissues. Male Sprague-Dawley rats were administered alpha-TS (100 mg/kg, single ip dose) or olive oil (vehicle only, 0.2 ml, single ip dose). Three rats were used per treatment. The rats fasted for 24 hours after ip dosage prior to sacrifice and analysis of tissues.

rat hepatocytes [3] = experiment: ATP content of rat hepatocyte suspensions; format: cell-based
Source text: It is well known that the succinate molecule is utilized by the cell to produce ATP energy. In the tricarboxylic acid cycle, succinate is oxidized by succinate dehydrogenase to produce ATP. Oxidation occurs in the mitochondria and the mitochondria can utilize both succinate formed in the mitochondria or succinate transported to the mitochondria. Increasing ATP production may enhance cellular repair processes as well as normal metabolic processes. For example, the cell's ability to remove free intracellular Ca^2+ during a toxic insult is related to ATP production. Succinate administration stimulates gluconeogenesis to form glucose 6-phosphate which is used for producing energy anaerobically (ATP formation through glycolysis) and for producing reducing equivalents (NADPH formation through the hexose monophosphate shunt needed for lipid and nucleotide biosynthesis and other biosynthetic reductions and enzymatic reactions, e.g., glutathione reductase). An in vitro experiment was conducted to determine the relationship between the release of succinate from alpha-TS and the cellular ATP level. The experiment was performed by incubating a tocopherol analog in a rat hepatocyte suspension and measuring the ATP level at the beginning and end of the test.
Rat hepatocyte suspensions were subjected to 50 mM EMS and the percentage of cell death, the percentage of intracellular K^+ (a metabolic parameter as discussed above), the depletion of ATP and the effect on lipid peroxidation were monitored.

For `CC(C)CCC[C@@H](C)[C@H]1CC[C@H]2[C@@H]3CC=C4C[C@@H](OC(=O)CCC(=O)O)CC[C@]4(C)[C@H]3CC[C@]12C` [Cholesteryl Succinate tris salt], the “Survival Time” value (L1210 leukemia cells) was 6.8 ± 0.4 days.
For `Cc1c(C)c2c(c(C)c1OC(=O)CCC(=O)O)CC[C@@](C)(CCC[C@H](C)CCC[C@H](C)CCCC(C)C)O2` [alpha-TS, d-alpha-tocopheryl succinate], the tumor cell growth [1] is given as “inhibits tumor cell growth”, the “protection against loss of viability” value (rat hepatocytes [2]; 0.5 μM, EMS) is given as 85% and the “protection against loss of viability and metabolic performance” value (rat hepatocytes [2]; 2 μM, EMS) is given as 100%. The “Protection From Toxic Injury” value (rat hepatocytes [2]; 2.0 μM) was “Yes”, the “Protection From Toxic Injury” value (rat hepatocytes [2]; 10 μM) was “Yes” and the “Protection From Toxic Injury” value (rat hepatocytes [2]; 25 μM) was “Yes”. For the same compound, the “Protection From Toxic Injury” value (rat hepatocytes [2]; 250 μM) was “Yes”, the “Cell Death” value (rat hepatocytes [2]; 50 mM EMS + 25 μM alpha-TS) was 30 ± 7% and the “Cell Death” value (rat hepatocytes [2]; 50 mM EMS + 25 μM alpha-TS + 100 μM Bis-(p-nitrophenyl) phosphate) was 52 ± 3%. For the same compound, the “Cell Death” value (rat hepatocytes [2]; 50 mM EMS + 25 μM alpha-TS + 100 μM Diethyl p-nitrophenyl phosphate) was 58 ± 8%, the “Cell Death” value (rat hepatocytes [2]; 50 mM EMS, 5 Hrs, alpha-TS 25, methyl ester 50, cholesteryl succinate 100, monomethyl/dimethyl succinate 250 μM) was 27 ± 1% and the “Protection From Toxic Injury” value (rat hepatocytes [2]; .5 μM) was “Yes”. For the same compound, the “% Cell Death” value (rat hepatocytes [2]; EMS 50 mM, 25 μM alpha-TS (no alpha-TS 68)) was 25%, the inhibition at 25 µM (rat hepatocytes [2]; 5 h, read-out: Percent Cytoprotection, 25 μM, 50 mM EMS, 5 h) was 92 ± 3% and the inhibition at 25 µM (rat hepatocytes [2]; read-out: % Protection, 25 μM, 50 mM EMS) was 100%. For the same compound, the “protection from lethal effects of EMS” value (rat hepatocytes [2]; rat hepatocytes, 25 μM, 50 mM EMS) was “protected both rat and canine hepatocytes from the lethal effects”, the “protection from lethal effects of EMS” value (canine hepatocytes) was “protected both rat and canine hepatocytes from the lethal effects” and the “ATP, Blood” value (male Sprague-Dawley rats) was 647 ± 29 nmol/g. For the same compound, the “ATP, Brain” value (male Sprague-Dawley rats) was 293 ± 86 nmol/g, the “ATP, Heart” value (male Sprague-Dawley rats) was 2782 ± 868 nmol/g and the “ATP, Kidney” value (male Sprague-Dawley rats) was 515 ± 44 nmol/g. The “ATP, Liver” value (male Sprague-Dawley rats) was 458 ± 57 nmol/g, the “ATP, Lung” value (male Sprague-Dawley rats) was 418 ± 18 nmol/g and the “Glucose, Blood” value (male Sprague-Dawley rats) was 4.8 ± 0.3 µmol/g. The “Glucose, Heart” value (male Sprague-Dawley rats) was 10.1 ± 1.7 µmol/g, the “Glucose, Kidney” value (male Sprague-Dawley rats) was 3.4 ± 1.1 µmol/g and the “Glucose, Liver” value (male Sprague-Dawley rats) was 21.7 ± 9.7 µmol/g. The “Glucose, Lung” value (male Sprague-Dawley rats) was 4.1 ± 0.5 µmol/g, the “Glycogen, Blood” value (male Sprague-Dawley rats) was 117 ± 26 µmol/g and the Glycogen, Brain (male Sprague-Dawley rats) was 1400 ± 372 nmol/g. For the same compound, the Glycogen, Heart (male Sprague-Dawley rats) was 4320 ± 946 nmol/g, the “Glycogen, Kidney” value (male Sprague-Dawley rats) was 211 ± 44 µmol/g and the “Glycogen, Liver” value (male Sprague-Dawley rats) was 778 ± 98 µmol/g. The “Glycogen, Lung” value (male Sprague-Dawley rats) was 634 ± 133 µmol/g, the “Lactate, Blood” value (male Sprague-Dawley rats) was 1.68 ± .06 µmol/g and the “Lactate, Brain” value (male Sprague-Dawley rats) was 7.82 ± .20 µmol/g. The “Lactate, Heart” value (male Sprague-Dawley rats) was 10.84 ± 2.67 µmol/g, the “Lactate, Kidney” value (male Sprague-Dawley rats) was 3.10 ± .21 µmol/g and the “Lactate, Liver” value (male Sprague-Dawley rats) was 3.36 ± .20 µmol/g. The “Lactate, Lung” value (male Sprague-Dawley rats) was 2.24 ± .29 µmol/g, the “Rate of ATP Depletion” value (rat hepatocytes [3]; 25 μM) was 1.0 ± 0.1 nmoles/10^6 cell/hr and the “Cellular ATP” value (rat hepatocytes [3]; 25 μM, 0 Hr) was 20.1 ± .5 nmoles/10^6 cells. The “Cellular ATP” value (rat hepatocytes [3]; 25 μM, 6 Hr) was 14.2 ± 0.8 nmoles/10^6 cells, the “Rate of ATP Depletion” value (rat hepatocytes [3]; 250 μM) was 0.6 ± 0.3 nmoles/10^6 cell/hr and the “Cellular ATP” value (rat hepatocytes [3]; 250 μM, 0 Hr) was 15.2 ± 1.6 nmoles/10^6 cells. The “Cellular ATP” value (rat hepatocytes [3]; 250 μM, 6 Hr) was 11.7 ± 2.0 nmoles/10^6 cells and the “% Initial Intracellular [ATP]” value (rat hepatocytes [3]; 50 mM EMS, 5 Hrs, 25 μM (Table 15)) was 45 ± 2 % Initial.

Source: patent US5336485A, “Method for protecting animals against tacrine induced cytotoxic injury using sterol compounds” (priority 1993, dated 1994)
